Series [1] is described as follows: Open-label maximal use pharmacokinetic study, topical ALA under occlusion (first study).
Procedure: (§1) Two open-label, pharmacokinetic studies were carried out to evaluate the potential for systemic exposure of ALA and ALA and protoporphyrin IX (PpIX) when applied topically under occlusion, in a maximal use setting in patients with multiple actinic keratoses (AK) lesions on the upper extremities. In accordance with at least one embodiment, a 20% w/w topical composition of 5-aminolevulinic acid (ALA) was directly applied topically via an applicator to the upper extremities of the patients followed by covering with an occlusive, polyethylene film for a 3 hour incubation period. Light treatment was administered after the incubation period. Each subject received 10 J/cm^2 of visible blue light delivered at 10 mW/cm^2.
(§2) In the first of the two studies, a total of 29 participants were enrolled. The participants were males and non-pregnant females, aged 18 years or older. […] The subjects received one treatment and were followed until week four after treatment. The treatment area, designated at baseline for the duration of the study, was the extensor surface of both distal upper extremities, as defined in the protocol (i.e., the dorsal hands/forearms). In the second of the two studies, a total of 14 participants were enrolled. Males and non-pregnant females, aged 18 years or older, with at least six Grade 1 or Grade 2 AK lesions on one upper extremity treatment area and at least 12 Grade 1 or Grade 2 AK lesions on the other upper extremity treatment area, were eligible for the study.
(§3) The term “Cmax,” as used herein refers to maximum observed plasma concentrations based on actual values measured following study medication application.
The next series is described as follows: Solubility in water. In kind it is physicochemical.
Series [2] can be described thus: clinical. The settings on record: both, human, plasma, topical or ocular, 354 mg.
Procedure: as §1, §2
The nature of series [3]: clinical. Particulars: both, human, plasma.
Procedure: as §1, §2, §3
The test system of another series is actinic keratoses. As to the kind of experiment: Randomized vehicle-controlled photodynamic therapy study, ALA with LDPE occlusion and blue light. In kind it is in vivo, human. An excerpt: The actinic keratoses were present on the upper extremities, more specifically, on the dorsal surface of the hands and/or the forearm area between the elbow and the base of the fingers. Subjects ranged from 45 to 90 years of age (mean 68 years) and 90% had Fitzpatrick Skin Type I, II or III. Subjects were randomized to treatment in a 1:1 ratio. ALA was applied to lesions on the dorsal surface of one hand or the forearm for each subject, and the dorsal surface of the hand or the forearm was then occluded with low density polyethylene barrier for three hours. Following removal of the low density polyethylene barrier, a 10 J/cm^2 dose of blue light was delivered at 10 mW/cm^2, with treatment repeated after 8 weeks if any lesion(s) remained in the treatment area.
The recurrence rate corresponds to the percentage of subjects with at least one recurrent lesion during the 12 month follow up period following the evaluation at twelve weeks who had previously achieved complete clearance at twelve weeks following treatment.

A short description of series [4]: Open-label maximal use pharmacokinetic study, topical ALA under occlusion (another experiment).
Procedure: as §1, §2
Where [5] appears, read: following a baseline correction.
Where [6] appears, read: topical, 3 hour occlusion, not baseline corrected.

Turning to `Cl.NCC(=O)CCC(=O)O` [ALA, 5-amino-4-oxopentanoic acid hydrochloride], the “ALA geometric mean maximum plasma concentration” value in series [1] (setting [5]) is 80 ng/mL; in series [4] (setting [5]), 39 ng/mL. Besides, the “time of maximum plasma concentration (median)” value in series [1] (setting [5]), in series [1] (setting [6]), in series [4] (setting [5]) and in series [4] (not baseline corrected) was 2 h each time. Besides, the “geometric mean maximum plasma concentration” value is recorded as “about 98 ng/mL” in series [1] (setting [6]) and “about 61 ng/ml” in series [4] (topical, not baseline corrected). Moreover, in the series “Solubility in water”, the solubility in water result is given as “highly soluble”. In addition, the bioavailability in the series “clinical [2]” was about 1%. Moreover, the AUC(0-t) is 282 ng·h/mL in “clinical [3]” (topical) and 577 ng·h/mL in “clinical [3]” (topical or ocular). In the series “clinical [3]” (topical or ocular, 354 mg), this compound gave a Cmax of under 110 ng/mL. Also, the “complete clearance (subjects with resolution of the actinic keratoses)” value in the series with actinic keratoses (twelve weeks after initial treatment, 3 h LDPE occlusion, 10 J/cm^2 blue light, 42 out of 135 subjects) was 31%. This compound also gave a recurrence rate with actinic keratoses (twelve-month follow-up of subjects with complete clearance at twelve weeks) of 58%.

As a reminder, the bioavailability is dose-corrected exposure relative to a reference, in per cent. High values mean much systemic uptake, low ones little systemic uptake. As a reminder, the AUC(0-t) is exposure summed from dosing to a finite time, without extrapolation to infinity. Higher therefore signals more exposure. A word on the Cmax: it is the peak of the concentration-time curve.

These data come from patent publication US12296011B2, “Methods for photodynamic therapy” (Sun Pharmaceutical Industries, Inc., priority 2018, dated 2025).
